Entries after “also recorded” stand apart in the source; their conditions may differ. Where two headings read alike, the source gives them in different places.
What was measured:
[1] = test system: H3K4 trimethylation activity in Kmt2d+/βGeo MEFs; test: H3K4me3 indicator in murine embryonic fibroblasts (MEFs) from Kmt2d+/βGeo and Kmt2d+/+ mice; format: cell-based, mouse; details: Kmt2d+/βGeo MEFs; FIG. 18H, 22A, 23
Excerpt: An H3K4 trimethylation reporter was also created (FIG. 5B). This reporter is based on the H3 tail on one end and the TBP associated factor III (TAFIII) […] on the other end; the TAFIII […] only identifies and binds to trimethylated K4 on H3. When the H3K4 site gets trimethylated, the TAFIII […] can bind to the modified H3 tail and bring the two parts of the separated GFP in close proximity. The activity of the epigenetic modification system can be quantified through fluorescence.
Epigenetic reporter alleles were synthesized (OriGene, Rockville, Md.) using published sequences for component elements (Baird et al. (1999) Proc. Natl. Acad. Sci. 96:11241-6; Souslova et al. (2007) BMC Biotechnol. 7:37). Single nucleotide mutations were created using the QuickChange Lightening kit (Agilent Technologies Inc, Santa Clara, Calif.). For H4ac indicator, K5R, K8R, K12R, K16R and K20R (MUT indicator) were introduced. For H3K4me3 indicator, K4Q and D890A/W891A and M882A (three separate constructs) were introduced. […] FACS data were analyzed using FlowJo (Tree Star Inc, Ashland, Oreg.). […]
Epigenetic reporter systems were created that monitor either H4 acetylation or H3K4 trimethylation machinery activity in an effort to determine whether there is an ongoing activity deficiency in cells from Kmt2d^+/βGeo mice (FIG. 18A). Both reporter alleles encode halves of green fluorescent protein separated by a flexible linker region (Baird et al. (1999) Proc. Natl. Acad. Sci. 96: 11241-6) with a histone tail and a histone reader at the N- and C-termini, respectively. When the histone tail corresponding to either H4 or H3 is modified by acetylation or methylation, respectively, GFP structure and function are reconstituted, as detected by a fluorescent readout (FIG. 18B). The acetyl reporter protein quantifies the activity of the acetylation machinery (acetylation of H4 specifically at sites K5, K8, K12, and K16) and comprises an H4 tail (residues 1-30) on one end and a TATA binding protein (TBP)-associated factor II (TAFII) bromodomain on the other end (FIG. 18A). […]

[2] = test system: mouse models of Rubinstein-Taybi syndrome; details: cited from earlier work
[3] = test system: H4 acetylation machinery (H4ac indicator); test: H4 acetylation (H4ac) indicator reporter allele, GFP fluorescence by FACS in stably transfected T293/HEK293 cells; format: cell-based; details: FIG. 18C, 18D, 19A, 19B, 20
Excerpt: The acetyl reporter protein quantifies the activity of the acetylation machinery (acetylation of H4 specifically at the 5th, 8th, 12th and 16th Lysine's) and comprises an H4 tail on one end (the target for acetylation) and a TBP associated factor II (TAFII) bromodomain on the other end of the reporter protein (FIG. 5A). The TAFII bromodomain only recognizes and binds to the acetylated H4 tail, resulting in reconstitution of GFP structure and function (i.e. fluorescence). Therefore, the reporter protein has no fluorescence unless it is acetylated by the acetylation system of the nucleus of the cell.
Epigenetic reporter alleles were synthesized (OriGene, Rockville, Md.) using published sequences for component elements (Baird et al. (1999) Proc. Natl. Acad. Sci. 96:11241-6; Souslova et al. (2007) BMC Biotechnol. 7:37). […] FACS data were analyzed using FlowJo (Tree Star Inc, Ashland, Oreg.). […]
Epigenetic reporter systems were created that monitor either H4 acetylation or H3K4 trimethylation machinery activity in an effort to determine whether there is an ongoing activity deficiency in cells from Kmt2d^+/βGeo mice (FIG. 18A). Both reporter alleles encode halves of green fluorescent protein separated by a flexible linker region (Baird et al. (1999) Proc. Natl. Acad. Sci. 96: 11241-6) with a histone tail and a histone reader at the N- and C-termini, respectively. […]

[4] = test system: HDAC; details: Phiel et al. (2001); cited from earlier work

Nc1ccccc1NC(=O)c1ccc(CNC(=O)OCc2cccnc2)cc1 [MS275, Pyridin-3-ylmethyl N-[[4-[(2-aminophenyl)carbamoyl]phenyl]methyl]carbamate]
H3K4 trimethylation activity in Kmt2d+/βGeo cells upon treatment [1]: enhanced; also recorded: improved

CC(C=CC(=O)NO)=CC(C)C(=O)c1ccc(N(C)C)cc1 (centres unmarked) [trichostatin A, 7-[4-(dimethylamino)phenyl]-N-hydroxy-4,6-dimethyl-7-oxohepta-2,4-dienamide]
neurological phenotypes in Rubinstein-Taybi mouse models ([2]; intraperitoneal administration): respond

O=C(CCCCCCC(=O)Nc1ccccc1)NO [SAHA, N′-hydroxy-N-phenyl-octanediamide]
H4ac indicator fluorescence response to increasing amounts of drug [3]: linear fluorescence response; also recorded: increasing fluorescence; also recorded: increases acetylation of the indicator; also recorded: increased signal | neurological phenotypes in Rubinstein-Taybi mouse models ([2]; intracerebroventricular administration): respond

CCCC(CCC)C(=O)O [valproic acid, 2-Propylpentanoic acid]
HDAC inhibitor activity [4]: potent HDACi
